In patent US10968193B2, “Antidiabetic bicyclic compounds” (Merck Sharp & Dohme Corp., priority 2014, dated 2021):

The molecules below were run against T1, human GPR40 (Homo sapiens, UniProt O14842) (assay: Inositol Phosphate Turnover (IP1) Assay 2). Details: HEK cells stably expressing human GPR40; 15,000 cells per well; compound acoustically transferred; CisBio IP-One kit.
T1 construct: expressed in transfected cells; host or cells: HEK cells stably expressing the aequorin reporter
T1 sequence (O14842 whole entry): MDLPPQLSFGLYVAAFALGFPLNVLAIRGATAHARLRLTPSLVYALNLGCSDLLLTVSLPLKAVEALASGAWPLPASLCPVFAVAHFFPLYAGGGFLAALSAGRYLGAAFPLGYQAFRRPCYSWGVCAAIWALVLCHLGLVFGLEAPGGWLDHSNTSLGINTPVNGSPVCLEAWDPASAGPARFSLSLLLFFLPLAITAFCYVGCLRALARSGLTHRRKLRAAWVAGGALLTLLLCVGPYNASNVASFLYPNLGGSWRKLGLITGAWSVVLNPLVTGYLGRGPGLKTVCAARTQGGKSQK
Format: cell-based
Description: Human and mouse GPR40 stable cell-lines were generated in CHO cells stably expressing NFAT BLA (Beta-lactamase). A human GPR40 stable cell-line was generated in HEK cells stably expressing the aequorin expressing reporter. The expression plasmids were transfected using lipofectamine (Life Technologies) following manufacturer's instructions. Stable cell-lines were generated following drug selection.
Inositol Phosphate Turnover (IP1) Assay 2:
The assay was performed in 384-well format. HEK cells stably expressing human GPR40 were plated at 15,000 cells per well in growth medium (DMEM/10% fetal calf serum). Cell plates were then incubated 16 hours at 37 degrees in a 5% CO2 incubator.
Measurement of Inositol Phosphate Turnover (IP1) was performed using the CisBio IP-One kit (Part number 62IPAPEB). After the 16 hour incubation, the cells were washed with HEPES buffer and 10 ul of stimulation buffer (prepared as described in the kit) was added to each well. In a separate plate, compounds were diluted in DMSO (400-fold over the final concentration in the assay well) and 25 nl was acoustically transferred to the appropriate well in the assay cell plate. The plates were then incubated for 60 minutes at 37 degrees. 10 ul of detection buffer (also prepared as described in the IP-One kit) was added to each well and the plates were incubated for 60 minutes in the dark. The plates were then read in a Perkin Elmer EnVision or equivalent reader able to measure FRET. Fluorescent ratio of emission at 665 and 620 nm was then converted to IP1 concentration by back calculating from an IP1 standard curve prepared at the time of the assay.
Molecule `COc1cc(-c2ccc(C3CCc4ccc([C@H](C5CC5)[C@H](C)C(=O)O)cc4O3)cc2CN2CC[C@H](C(F)(F)F)C2)c(F)cn1` (single isomer, unassigned) [Example 29] has an EC50 of 0.8 nM. With `COc1cc(-c2ccc(C3CCc4ccc([C@H](C5CC5)[C@H](C)C(=O)O)cc4O3)cc2CN2CC[C@H](F)C2)c(F)cn1` (single isomer, unassigned) [Example 26] the EC50 was 2.5 nM. `COc1cc(-c2ccc(C3CCc4ccc([C@H](C5CC5)[C@H](C)C(=O)O)cc4O3)cc2CN2CC[C@@H](S(C)(=O)=O)C2)c(F)cn1` (some centres unmarked) [Example 5] showed an EC50 of 660 nM. Molecule `COc1cc(-c2ccc(C3CCc4ccc([C@H](C5CC5)[C@H](C)C(=O)O)cc4O3)cc2CN2CCOCC2)c(F)cn1` (single isomer, unassigned) [Example 11a] has an EC50 of 1.7 nM. Work on `COC[C@@H]1CCCN1Cc1cc([C@H]2CCc3ccc([C@H](C4CC4)[C@H](C)C(=O)O)cc3O2)ccc1-c1cc(OC)ncc1F` [Example 135] yielded an EC50 of 5 nM. For `COc1cc(-c2ccc([C@H]3CCc4ccc([C@H](C5CC5)[C@H](C)C(=O)O)cc4O3)cc2CN2CCCC[C@H]2C)c(F)cn1` [Example 167], the EC50 was 2.2 nM. `COc1cc(-c2ncc(C3CCc4ccc([C@H](C5CC5)[C@H](C)C(=O)O)cc4O3)nc2CN2CCCC2)c(F)cn1` (stereo partly drawn) [Example 110, (2S,3R)-3-cyclopropyl-3-(2-(5-(5-fluoro-2-methoxypyridin-4-yl)-6-(pyrrolidin-1-ylmethyl)pyrazin-2-yl)chroman-7-yl)-2-methylpropanoic acid] was tested, and the EC50 was 824 nM. `COc1cc(-c2ccc(C3CCc4ccc([C@H](C5CC5)[C@H](C)C(=O)O)cc4O3)cc2CN2CCCC2(C)C)c(F)cn1` (mixture of isomers) [Example 66] gave an EC50 of 0.65 nM. For `COc1cc(-c2ccc(C3CCc4ccc([C@H](C5CC5)[C@H](C)C(=O)O)cc4O3)cc2CN(C2CC2)C2COC2)c(F)cn1` (mixture of isomers) [Example 53], the EC50 was 1.7 nM. `COc1cc(-c2ccc(C3CCc4ccc([C@H](C5CC5)[C@H](C)C(=O)O)cc4O3)cc2CN2CC[C@H](F)C2)c(F)cn1` (some centres unmarked) [Example 15] showed an EC50 of 1.1 nM. With `COC[C@@H]1CC[C@@H](COC)N1Cc1cc(C2CCc3ccc([C@H](C4CC4)[C@H](C)C(=O)O)cc3O2)ccc1-c1cc(OC)ncc1F` (some centres unmarked) [Example 58] the EC50 was 1.1 nM. `COc1cc(-c2ccc(C3CCc4ccc([C@H](C5CC5)[C@H](C)C(=O)O)cc4O3)cc2CN2CCOCC2(C)C)c(F)cn1` (mixture of isomers) [Example 59] was tested, and the EC50 was 0.98 nM. `COc1cc(-c2ccc([C@H]3CCc4ccc([C@H](C5CC5)[C@H](C)C(=O)O)cc4O3)cc2CN2C3CCC2CC3)c(F)cn1` [Example 148] gave an EC50 of 4.2 nM. `COc1cc(-c2ncc([C@@H]3CCc4ccc([C@H](C5CC5)[C@H](C)C(=O)O)cc4O3)nc2CN2CCCC2)c(F)cn1` (single isomer, unassigned) [Example 110a] showed an EC50 of 446 nM. Work on `COc1cc(-c2ccc(C3CCc4ccc([C@H](C5CC5)[C@H](C)C(=O)O)cc4O3)cc2CN2CCn3cncc3C2)c(F)cn1` (mixture of isomers) [Example 40] yielded an EC50 of 184 nM. In the case of `COc1cc(-c2ccc(C3CCc4ccc([C@H](C5CC5)[C@H](C)C(=O)O)cc4O3)cc2CN2CCCC2)c(F)cn1` (single isomer, unassigned) [Example 9a], the EC50 is reported as 3.9 nM. Molecule `COc1cc(-c2ccc(C3CCc4ccc([C@H](C5CC5)[C@H](C)C(=O)O)cc4O3)cc2C(C)N2CCCC2)c(F)cn1` (stereo partly drawn) [Example 84, Methyl (2S,3R)-3-cyclopropyl-3-(2-(4-(5-fluoro-2-methoxypyridin-4-yl)-3-(1-(pyrrolidin-1-yl)ethyl)phenyl)chroman-7-yl)-2-methylpropanoic acid] has an EC50 of 2 nM. Molecule `COc1cc(-c2ccc(C3CCc4ccc([C@H](C5CC5)[C@H](C)C(=O)O)cc4O3)cc2CN2CCC(F)(F)CC2)c(F)cn1` (mixture of isomers) [Example 46] has an EC50 of 1 nM. `COc1cc(-c2ccc([C@@H]3CCc4ccc([C@H](C5CC5)[C@H](C)C(=O)O)cc4O3)cc2CN2CCCC2(C)C)c(F)cn1` [Example 160] showed an EC50 of 2.5 nM. Work on `COc1cc(-c2ccc(C3CCc4ccc([C@H](C5CC5)[C@H](C)C(=O)O)cc4O3)cc2CN2CC[C@@H](O)C2)c(F)cn1` (some centres unmarked) [Example 8] yielded an EC50 of 238 nM. In the case of `COc1cc(-c2ccc(C3CCc4ccc([C@H](C5CC5)[C@H](C)C(=O)O)cc4O3)cc2CN2CCC(C(F)(F)F)C2)c(F)cn1` (some centres unmarked) [Example 14], the EC50 is reported as 0.87 nM. In the case of `CCOc1cc(-c2ccc(C3CCc4ccc([C@H](C5CC5)[C@H](C)C(=O)O)cc4O3)cc2CN(CC)CC)c(F)cn1` (mixture of isomers) [Example 76], the EC50 is reported as 8.2 nM. `COc1cc(-c2ccc([C@@H]3CCc4ccc([C@H](C5CC5)[C@H](C)C(=O)O)cc4O3)cc2CN2CCC[C@H]2C)c(F)cn1` [Example 141] showed an EC50 of 1.1 nM. `CCOc1cc(-c2ccc(C3CCc4ccc([C@H](C5CC5)[C@H](C)C(=O)O)cc4O3)cc2CN2CCCC2)c(F)cn1` (some centres unmarked) [Example 77] gave an EC50 of 29 nM. `COc1cc(-c2ccc(C3CCc4ccc([C@H](C5CC5)[C@H](C)C(=O)O)cc4O3)cc2CN2CCC2C(F)(F)F)c(F)cn1` (some centres unmarked) [Example 72] was tested, and the EC50 was 1.2 nM. `COc1cc(-c2ccc(C3CCc4ccc([C@H](C5CC5)[C@H](C)C(=O)O)cc4O3)cc2CN2CC(C)C2)c(F)cn1` (mixture of isomers) [Example 35] gave an EC50 of 22 nM. `COc1cc(-c2ccc([C@H]3CCc4ccc([C@H](C5CC5)[C@H](C)C(=O)O)cc4O3)cc2CN2CCCCC2(C)C)c(F)cn1` [Example 166] showed an EC50 of 0.3 nM. Work on `COc1cc(-c2ccc(C3CCc4ccc([C@H](C5CC5)[C@H](C)C(=O)O)cc4O3)cc2CN2CCC[C@@H]2C)c(F)cn1` (some centres unmarked) [Example 38] yielded an EC50 of 1.8 nM. `COc1cc(-c2ccc(C3CCc4ccc([C@H](C5CC5)[C@H](C)C(=O)O)cc4O3)cc2CN2CCCC(C)(C)C2)c(F)cn1` (mixture of isomers) [Example 55] was tested, and the EC50 was 0.73 nM. With `COc1cc(-c2ccc([C@H]3CCc4ccc([C@H](C5CC5)[C@H](C)C(=O)O)cc4O3)cc2CN2[C@H](C)CC[C@H]2C)c(F)cn1` [Example 147] the EC50 was 0.7 nM. With `COc1cc(-c2ccc(C3CCc4ccc([C@H](C5CC5)[C@H](C)C(=O)O)cc4O3)cc2CN2CCCC2)c(F)cn1` (mixture of isomers) [Example 9] the EC50 was 4.3 nM. Work on `COc1cc(-c2ccc([C@@H]3CCc4ccc([C@H](C5CC5)[C@H](C)C(=O)O)cc4O3)cc2CNCC(F)(F)F)c(F)cn1` [Example 150] yielded an EC50 of 1 nM. `CNCc1cc([C@@H]2CCc3ccc([C@H](C4CC4)[C@H](C)C(=O)O)cc3O2)ccc1-c1cc(OC)ncc1F` [Example 34, Sodium (2S,3R)-3-cyclopropyl-3-((S)-2-(4-(5-fluoro-2-methoxypyridin-4-yl)-3-((methylamino)methyl)phenyl)chroman-7-yl)-2-methylpropanoate] showed an EC50 of 1.9 nM. `COc1cc(-c2ccc([C@H]3CCc4ccc([C@H](C5CC5)[C@H](C)C(=O)O)cc4O3)cc2CN2CCCC2(C)C)c(F)cn1` [Example 146] gave an EC50 of 1.8 nM. `COc1c[nH]nc1-c1ccc([C@@H]2CCc3ccc([C@H](C4CC4)[C@H](C)C(=O)O)cc3O2)cc1CN1CCCC1` [Example 79, Sodium (2S,3R)-3-cyclopropyl-3-((S)-2-(4-(4-methoxy-1H-pyrazol-3-yl)-3-(pyrrolidin-1-ylmethyl)phenyl)chroman-7-yl)-2-methylpropanoate] was tested, and the EC50 was 4840 nM. With `COc1cc(-c2ccc([C@H]3CCc4ccc([C@H](C5CC5)[C@H](C)C(=O)O)cc4O3)cc2CN2CCCCC2)c(F)cn1` [Example 165] the EC50 was 3.9 nM. Work on `COc1cc(-c2ccc([C@@H]3CCc4ccc([C@H](C5CC5)[C@H](C)C(=O)O)cc4O3)cc2CN2CCC[C@@H]2C)c(F)cn1` [Example 140] yielded an EC50 of 1.8 nM. `COc1cc(-c2ccc(C3CCc4ccc([C@H](C5CC5)[C@H](C)C(=O)O)cc4O3)cc2CN2CC[C@@H](C(F)(F)F)C2)c(F)cn1` (single isomer, unassigned) [Example 27] showed an EC50 of 1.5 nM. `COc1cc(-c2ccc(C3CCc4ccc([C@H](C5CC5)[C@H](C)C(=O)O)cc4O3)cc2CN(C)C)c(F)cn1` (single isomer, unassigned) [Example 1a] showed an EC50 of 2.3 nM. `COc1cc(-c2ccc(C3CCc4ccc([C@H](C5CC5)[C@H](C)C(=O)O)cc4O3)cc2CN2CCC(F)(F)C2)c(F)cn1` (single isomer, unassigned) [Example 31] showed an EC50 of 0.95 nM. `COc1cc(-c2ccc(C3CCc4ccc([C@H](C5CC5)[C@H](C)C(=O)O)cc4O3)cc2CN2[C@H](C)COC[C@H]2C)c(F)cn1` (some centres unmarked) [Example 60] gave an EC50 of 0.59 nM. `COc1cc(-c2ccc(C3CCc4ccc([C@H](C5CC5)[C@H](C)C(=O)O)cc4O3)nc2CN2CCOCC2)c(F)cn1` (mixture of isomers) [Example 12] gave an EC50 of 60 nM. `COc1cc(-c2ccc(C3CCc4ccc([C@H](C5CC5)[C@H](C)C(=O)O)cc4O3)cc2CN2CC[C@@H](C(F)(F)F)C2)c(F)cn1` (single isomer, unassigned) [Example 28] showed an EC50 of 1.4 nM. For `COc1cc(-c2ccc(C3CCc4ccc([C@H](C5CC5)[C@H](C)C(=O)O)cc4O3)cc2CN2CCC(F)(F)C2)c(F)cn1` (single isomer, unassigned) [Example 32], the EC50 was 0.84 nM.
